Reference: patent US4632978A, “6-serine, des-19-leucine calcitonin” (Armour Pharmaceutical Corp., priority 1985, dated 1986)
Bridge positions count the residues as written; N and C are the ends. Ends that are not written are not given here.

Experiments:
[1] = system: serum calcium concentration; assay: Biological assay of calcitonin analogs in vivo: reduction of serum calcium concentration, 2×2 parallel line assay against synthetic salmon calcitonin standard; conditions: rats, subcutaneous injection, blood withdrawn 1 hour later, vs synthetic salmon calcitonin standard
Experimental: Biological Assay Of Calcitonin Analogs In Vivo
The biological potency of Ser^6, des-Leu^19 -salmon calcitonin was determined by comparing the reduction of serum calcium concentration which followed administration by graded doses of Ser^6, des-Leu^19 SCT and synthetic salmon calcitonin standard. Rats were divided into four groups of seven animals, and each group was assigned at random to a dose of standard or test solution. Low and high doses where chosen from the linear portion of the dose-response curve. For the salmon calcitonin standard, the values were 0.7 and 2.1 ng. peptide/100 g. body weight (BW). This dose approximates 3 and 9 MU/100 g. BW. Peptides were given by subcutaneous injection (0.2 ml/100 g. BW) and blood was withdrawn 1 hour later for serum calcium determination. Sera are processed and analyzed within two hours of collection. […]. Results were analyzed by a 2×2 parallel line assay [Gaddum, J. H., J. Pharm. Pharmacol., 5, 345 (1953)]. The standard salmon calcitonin used was independently determined to contain greater than 4,000 IU/mg. Ser^6,des-Leu^19 -SCT assayed at 8400 IU/mg.

[2] = literature values, Monikawa et al.; cited from earlier work

Substance | biological potency (reduction of serum calcium concentration) [1] [IU/mg] | hypocalcemic potency [2]
6-serine, des-19-leucine-salmon calcitonin [Ser^6,des-Leu^19 -SCT] | 8400 | 
(1,7-α-L-aminosuberic acid)eel calcitonin |  | about 3400 IU/mg
eel calcitonin (CSNLSTCVLGKLSQELHKLQTYPRTDVGAGTP-NH2; disulfide 1-7; ends not checked; UniProt P01262 1-32, looked up) [synthetic eel calcitonin, synthetic eel calcitonin from Monikawa et al] |  | around 4300 IU/mg
